In brackets after ≈: the same amount, converted by molar mass.
Legend:
[1] = system: Visna virus; assay: Visna virus test: inhibition of virus-induced cytopathic effect / virus multiplication in infected cell cultures; format: cell-based; details: Visna-maedi virus, 168 h, sheep fibroblast cells, 7 days at 37° C., Table 1, read-out: 2 MIC (minimum concentration at which an inhibition of virus multiplication was still observed)
Experimental: In cell cultures which are infected with Visna virus, pronounced virus-induced, cytopathic effects appear 5 to 10 days after infection. By treatment of the infected cell cultures with the compounds according to the invention, the appearance of these cytopathic effects could be prevented.
(§1) The Visna virus test was carried out by the method of O. Narayan et al., Journal of Infectious Diseases 135, 5, 1977, 800-806. For this, the compounds according to the invention were diluted to non-cytotoxic concentrations in culture medium in 96-well microtiter plates. Subsequently, sheep fibroblast cells (5×10^4 cells per well) in production medium were added to each well. Each well then contained 50 μl of a Visna virus solution having a titre of about 2.5×10^4TCID50 (TCID=tissue culture infectious dose). This virus dose corresponds to an MOI (multiplicity of infection) of about 0.05.
The infected and treated cells and the controlled cells were incubated for 7 days at 37° C. and 5% CO2.
On appearance of the virus-induced cytopathogenic effect in the untreated virus control, the cultures were fixed using formalin and subsequently stained with a Giemsa solution.
(§2) Herein, MCC denotes cytotoxicity and MIC denotes the minimum concentration at which an inhibition of virus multiplication was still observed.

[2] = Cytotoxicity (MCC); format: cell-based; details: sheep, sheep fibroblast cells; MCC denotes cytotoxicity; Table 1
Experimental: as §1, §2

| SMILES | MIC [1] [µg/mL] | MCC [2] [µg/mL] |
| --- | --- | --- |
| O=C(CCN1C[C@H](O)[C@@H](O)[C@H](O)[C@H]1CO)N1CCN(c2ccc(F)cc2)CC1 [Example 41, 3-(1,5-Didesoxy-1,5-imino-D-glucit-N-yl)propionyl-1-(4-p-fluorophenyl)piperazine] | 125 (≈ 315 µM) | 1000 |
| O=C(CCN1C[C@H](O)[C@@H](O)[C@H](O)[C@H]1CO)Nc1ccc(OCc2ccccc2)cc1 [Example 4, N-(4-Benzyloxyphenyl)-3-(1,5-didesoxy-1,5-imino-D-glucit-N-yl)propionamide] | 125 (≈ 300 µM) | > 1000 |
| O=C(CCN1C[C@H](O)[C@@H](O)[C@H](O)[C@H]1CO)Nc1ccc(C(F)(F)F)cc1 [Example 11, N-(4-Trifluoromethylphenyl)-3-(1,5-didesoxy-1,5-imino-D-glucit-N-yl)propionamide] | 500 (≈ 1320 µM) | > 1000 |
| O=C(CCN1C[C@H](O)[C@@H](O)[C@H](O)[C@H]1CO)Nc1ccccc1 [Example 34, N-Phenyl-3-(1,5-didesoxy-1,5-imino-D-glucit-N-yl)propionamide] | 15 (≈ 48.3 µM) | > 1000 |
| O=C(CCN1C[C@H](O)[C@@H](O)[C@H](O)[C@H]1CO)NCc1ccccn1 [Example 38, N-(2-Pyridylmethyl)-3-(1,5-didesoxy-1,5-imino-D-glucit-N-yl)propionamide] | 250 (≈ 768 µM) | 1000 |
| O=C(CCN1C[C@H](O)[C@@H](O)[C@H](O)[C@H]1CO)Nc1ccccc1F [Example 16, N-(2-Fluorophenyl)-3-(1,5-didesoxy-1,5-imino-D-glucit-N-yl)propionamide] | 250 (≈ 761 µM) | > 1000 |
| Cc1ccc(N2CCN(C(=O)CCN3C[C@H](O)[C@@H](O)[C@H](O)[C@H]3CO)CC2)cc1 [Example 87, 3-(1,5-Didesoxy-1,5-imino-D-glucit-N-yl)-propionyl-1-(4-tolyl)piperazine] | 250 (≈ 635 µM) | > 1000 |
| O=C(CCN1C[C@H](O)[C@@H](O)[C@H](O)[C@H]1CO)NCc1cccs1 [Example 101, N-[(Thiophen-2-yl)-methyl]-3-(1,5-didesoxy-1,5-imino-D-glucit-N-yl)propionamide] | 125 (≈ 378 µM) | 1000 |
| COc1cc(NC(=O)CCN2C[C@H](O)[C@@H](O)[C@H](O)[C@H]2CO)cc(OC)c1 [Example 25, N-(3,5-Dimethoxyphenyl)-3-(1,5-didesoxy-1,5-imino-D-glucit-N-yl)propionamide] | 250 (≈ 675 µM) | > 1000 |
| O=C(CCN1C[C@H](O)[C@@H](O)[C@H](O)[C@H]1CO)NCc1ccc(C(F)(F)F)cc1 [Example 89, N-(4-Trifluoromethylbenzyl)-3-(1,5-didesoxy-1,5-imino-D-glucit-N-yl)propionamide] | 500 (≈ 1270 µM) | 1000 |
| CCOc1ccc(NC(=O)CCN2C[C@@H](O)[C@@H](O)[C@H](O)[C@H]2CO)cc1 [Example 76, N-(4-Ethoxyphenyl)-3-(1,5-didesoxy-1,5-imino-D-mannit-N-yl)propionamide] | 500 (≈ 1410 µM) | > 1000 |
| C[C@H](NC(=O)CCN1C[C@H](O)[C@@H](O)[C@H](O)[C@H]1CO)c1ccccc1 [Example 102, N-[(1S)-1-Phenethyl]-3-(1,5-didesoxy-1,5-imino-D-glucit-N-yl)propionamide] | 125 (≈ 369 µM) | > 1000 |
| CC(C)c1ccccc1NC(=O)CCN1C[C@H](O)[C@@H](O)[C@H](O)[C@H]1CO [Example 14, N-(2-Isopropylphenyl)-3-(1,5-didesoxy-1,5-imino-D-glucit-N-yl)propionamide] | 125 (≈ 355 µM) | > 1000 |
| N#Cc1cccc(NC(=O)CCN2C[C@H](O)[C@@H](O)[C@H](O)[C@H]2CO)c1 [Example 27, N-(3-Cyanophenyl)-3-(1,5-didesoxy-1,5-imino-D-glucit-N-yl)propionamide] | 250 (≈ 745 µM) | > 1000 |
| COc1cc(NC(=O)CCN2C[C@@H](O)[C@@H](O)[C@H](O)[C@H]2CO)cc(OC)c1 [Example 66, N-(3,5-Dimethoxyphenyl)-3-(1,5-didesoxy-1,5-imino-D-mannit-N-yl)propionamide] | 500 (≈ 1350 µM) | 1000 |
